Source: article PMC10531311, “Anti-Inflammatory Activities of 8-Benzylaminoxanthines Showing High Adenosine A2A and Dual A1/A2A Receptor Affinity” (International Journal of Molecular Sciences, 2023)
Read-outs that look alike come from different tables or passages of the source.

Assays:
[1] = PAMPA blood brain barrier permeability; assay type: in vitro ADME
Experimental: The ability of compounds, especially those intended to act in the CNS, to penetrate the blood-brain barrier (BBB) is an important property to consider in the initial stages of drug candidate screening. The PAMPA assay is a commonly used test to assess the passive permeation of the BBB [17]. In our study, caffeine was used as a highly permeable compound. […] After 5 h of incubation at room temperature, the results were analyzed by LC-MS, and the permeability coefficients (Pe) were calculated.
For permeability evaluation, a PAMPA Gentest™ pre-coated […] system, provided by Corning (Tewksbury, MA, USA), was used. The precise procedure was previously described. The permeability coefficient Pe was calculated based on the given equations. Concentrations of the tested compounds in the apical and basolateral wells were determined by LC/MS analysis using an internal standard.

human adenosine A1R = target: T1, human adenosine A1R (Homo sapiens, UniProt P30542); settings: cited from earlier work; for Ki: human
T1 construct: expressed in transfected cells; host or cells: CHO cells
T1 sequence (P30542 1-326): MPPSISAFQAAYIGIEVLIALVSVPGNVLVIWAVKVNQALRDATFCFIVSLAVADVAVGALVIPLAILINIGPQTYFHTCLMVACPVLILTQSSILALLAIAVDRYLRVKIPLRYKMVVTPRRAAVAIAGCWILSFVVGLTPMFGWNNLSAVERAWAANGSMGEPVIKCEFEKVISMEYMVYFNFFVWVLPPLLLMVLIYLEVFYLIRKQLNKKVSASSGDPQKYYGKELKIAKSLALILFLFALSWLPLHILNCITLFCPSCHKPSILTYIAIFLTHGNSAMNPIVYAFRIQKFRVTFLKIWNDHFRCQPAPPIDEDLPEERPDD

human adenosine A2AR = target: T2, human adenosine A2AR (Homo sapiens, UniProt P29274); settings: cited from earlier work
T2 construct: expressed in transfected cells; host or cells: CHO cells
T2 sequence (P29274 whole entry): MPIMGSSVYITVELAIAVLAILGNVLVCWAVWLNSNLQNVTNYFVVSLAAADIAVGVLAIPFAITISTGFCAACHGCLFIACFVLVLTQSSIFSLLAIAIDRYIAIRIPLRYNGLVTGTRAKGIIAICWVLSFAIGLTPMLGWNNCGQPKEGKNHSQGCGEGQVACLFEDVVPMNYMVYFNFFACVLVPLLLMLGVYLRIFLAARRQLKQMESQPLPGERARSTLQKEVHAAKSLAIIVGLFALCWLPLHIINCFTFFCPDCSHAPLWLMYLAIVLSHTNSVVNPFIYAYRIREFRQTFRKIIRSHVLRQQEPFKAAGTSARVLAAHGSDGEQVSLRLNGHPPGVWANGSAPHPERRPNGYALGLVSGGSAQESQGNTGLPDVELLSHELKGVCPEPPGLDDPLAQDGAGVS

[2] = target: other adenosine receptors; settings: cited from earlier work
[3] = tested on: carrageenan-induced edema in mice; set-up: method as in PMID 25735490; settings: 100 mg/kg ip, cited from earlier work
[4] = set-up: method as in PMID 21235574; settings: animal studies; cited from earlier work
[5] = set-up: method as in PMID 30254599; settings: LPD and ibotenate models; cited from earlier work
[6] = tested on: carrageenan-induced edema in rats; set-up: method as in PMID 32629282; settings: 20 mg/kg ip; cited from earlier work
human adenosine A2BR = target: T3, human adenosine A2BR (Homo sapiens, UniProt P29275); set-up: method as in PMID 32629282; settings: cited from earlier work
T3 construct: expressed in transfected cells; host or cells: CHO cells
T3 sequence (P29275 1-332): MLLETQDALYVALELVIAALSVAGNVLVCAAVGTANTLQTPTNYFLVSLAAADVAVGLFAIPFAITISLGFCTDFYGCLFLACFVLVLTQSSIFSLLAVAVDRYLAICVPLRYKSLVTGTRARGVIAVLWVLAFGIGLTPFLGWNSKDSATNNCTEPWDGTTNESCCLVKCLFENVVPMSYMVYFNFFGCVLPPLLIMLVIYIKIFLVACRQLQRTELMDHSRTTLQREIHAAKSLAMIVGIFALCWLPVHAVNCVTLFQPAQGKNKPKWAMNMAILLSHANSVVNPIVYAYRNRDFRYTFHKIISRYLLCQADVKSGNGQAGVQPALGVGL

human adenosine A3R = target: T4, human adenosine A3R (Homo sapiens, UniProt P0DMS8); set-up: method as in PMID 32629282; settings: cited from earlier work
T4 construct: expressed in transfected cells; host or cells: CHO cells
T4 sequence (P0DMS8 1-318): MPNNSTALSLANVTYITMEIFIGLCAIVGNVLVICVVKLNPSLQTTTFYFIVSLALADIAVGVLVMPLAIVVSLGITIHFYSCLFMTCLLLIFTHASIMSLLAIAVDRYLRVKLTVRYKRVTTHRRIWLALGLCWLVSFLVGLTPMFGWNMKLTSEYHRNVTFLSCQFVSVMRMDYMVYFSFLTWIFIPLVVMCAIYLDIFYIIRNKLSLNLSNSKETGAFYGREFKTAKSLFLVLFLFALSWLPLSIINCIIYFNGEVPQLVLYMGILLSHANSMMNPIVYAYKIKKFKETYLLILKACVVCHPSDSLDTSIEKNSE

[7] = selectivity towards other adenosine receptors

Cn1c(=O)c2c(ncn2C)n(C)c1=O [Caffeine, reference compound]
Drug Retention [1]: 29.46% | Papp at 5 h, 100 μM ([1]; 100 μM in PBS, 5 h, room temperature, triplicate, read-out: Pe ± SD): 6.57 ± 1.57 ×10⁻⁶ cm/s | Papp at 5 h, 100 μM ([1]; read-out: Permeable): ≥ 1.5 ×10⁻⁶ cm/s

Cn1c(=O)c2c(nc3n2CCCN3CCc2ccc(O)cc2)n(C)c1=O [KD-114]
Ki (human adenosine A1R; read-out: hA1R Ki): > 25000 nM | Ki (human adenosine A2AR; read-out: hA2AR Ki): 230 nM | Ki [2, 7]: > 1000 nM | reduction of edema volume ([3]; 1st, 2nd and 3rd hour): > 90% | edema at the first hour with the tested compound ([3]; control 64%): 2%

Nc1nc2c(cnn2CCc2ccccc2)c2nc(-c3ccco3)nn12 [SCH-58261]
effect in LPS-induced inflammation model (in words) [4]: beneficial effects | effect on pro-inflammatory factors (IL-1ß, IL-6, iNOS, TNF alpha) (in words) [5]: caused a decrease in the above-mentioned cytokines

CCn1c(=O)c2c(nc(NCc3cccc(OC)c3F)n2C)n(C)c1=O [compound 1]
Ki (human adenosine A1R; read-out: hA1R Ki): > 1000 nM | Ki (human adenosine A2AR; read-out: A2AR Ki): 69 nM | Ki [2, 7]: > 1000 nM | inhibition of edema, 2nd hour [6]: 44% | inhibition of edema, 3rd hour [6]: 53%

CCn1c(=O)c2c(nc(NCc3ccccc3Cl)n2C)n(C)c1=O [compound 2]
A1R % Inhibition ± SEM at 1 µM (human adenosine A1R; 1 µM): 22 ± 1% | Ki (human adenosine A1R; read-out: A1R Ki): > 1000 nM | Ki (human adenosine A2AR; read-out: A2AR Ki): 71 ± 6 nM | A2BR % Inhibition ± SEM at 1 µM (human adenosine A2BR; 1 µM): 44 ± 10% | Ki (human adenosine A2BR; human): > 1000 nM | A3R % Inhibition ± SEM at 1 µM (human adenosine A3R; 1 µM): 14 ± 1% | Ki (human adenosine A3R; human): > 1000 nM | Ki [2]: > 1000 nM
